Data taken from patent US8920851B2, “Treatment of neurodegenerative diseases” (Velacor Therapeutics Pty Ltd, priority 2006, dated 2014).

Tests used:
[1] = molecular target: T1, human PP2A A-C heterodimer (Homo sapiens, UniProt P67775); type: biochemical; settings: 0.05 U PP2A dimer, 30 min at 37° C.; sodium selenate 5 mM, okadaic acid 500 nM
T1 construct: purified PP2A A-C dimer purified from human red blood cells; purchased Upstate 14-111 (lot #28002); host or cells: human red blood cells (native purification)
T1 sequence (P67775 whole entry): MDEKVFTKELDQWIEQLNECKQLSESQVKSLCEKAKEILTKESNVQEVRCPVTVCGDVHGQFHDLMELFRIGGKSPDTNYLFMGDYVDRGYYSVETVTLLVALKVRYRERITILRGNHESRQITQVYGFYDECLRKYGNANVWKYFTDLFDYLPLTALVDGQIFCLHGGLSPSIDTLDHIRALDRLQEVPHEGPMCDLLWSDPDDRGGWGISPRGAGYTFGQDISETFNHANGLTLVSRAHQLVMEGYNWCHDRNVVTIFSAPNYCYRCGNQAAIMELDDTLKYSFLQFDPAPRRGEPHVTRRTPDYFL
T1 sequence (P30153 2-589 partner limits assumed): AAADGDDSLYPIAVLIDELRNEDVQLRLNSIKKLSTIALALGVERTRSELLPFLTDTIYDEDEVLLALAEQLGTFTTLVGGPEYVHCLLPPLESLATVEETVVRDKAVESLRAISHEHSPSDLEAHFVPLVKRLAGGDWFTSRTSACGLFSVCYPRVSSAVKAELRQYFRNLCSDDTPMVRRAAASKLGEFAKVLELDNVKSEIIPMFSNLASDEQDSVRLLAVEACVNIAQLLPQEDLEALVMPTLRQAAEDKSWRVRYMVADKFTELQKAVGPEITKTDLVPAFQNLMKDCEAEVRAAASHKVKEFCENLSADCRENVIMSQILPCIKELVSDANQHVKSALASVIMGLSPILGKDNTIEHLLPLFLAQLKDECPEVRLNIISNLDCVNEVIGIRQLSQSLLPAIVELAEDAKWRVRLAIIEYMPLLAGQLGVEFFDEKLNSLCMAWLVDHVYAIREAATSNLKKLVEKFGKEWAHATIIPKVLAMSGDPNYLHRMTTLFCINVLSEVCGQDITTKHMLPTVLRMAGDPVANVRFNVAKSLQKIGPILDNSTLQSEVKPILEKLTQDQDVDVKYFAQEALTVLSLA
Procedure: In initial assays a chemical substrate of phosphatase enzymatic action, para-nitrophennylphosphate (pNPP) was used, which following hydrolysis of the phosphate moiety generates para-nitrophenol, an intensely yellow chromogen which is soluble under alkaline conditions. […] Absorbance of each sample was measured in duplicate at 405 nm with 590 nm as a reference. PP2A activity was calculated using the following equation: activity=(sample vol in liters)×A405/1.78×104M^−1 cm^−1 (extinction coefficient)×0.25 cm×15 minutes×0.05 U enzyme Data is presented as mean relative phosphatase activity ±SEM from at least three independent experiments.
Para-nitrophennylphosphate (PNPP) is a chemical substrate of phosphatase enzymes, which following hydrolysis of the phosphate moiety generates para-nitrophenol, an intensely yellow chromogen, soluble under alkaline conditions. In assays measuring relative phosphatase activity, 0.05 U of purified PP2A was mixed with 5 μl of 40 mM NiCl2 and 5 μl of BSA solution (5 mg/ml) in a microcentrifuge tube. Various treatments were added as indicated, and the volume adjusted to 80 μl with pNPP assay buffer. Samples were pre-incubated at 37° C. for 15 min. pNPP substrate was freshly prepared before each assay by dissolving 1.5 mg/ml pNPP in 50 mM Tris-HCl, pH 7.0. To start the phosphatase reaction, 120 μl of pNPP substrate was added, and samples incubated for a further 15 min at 37° C. Absorbance of each sample was measured in duplicate at 405 nm with 590 nm as a reference. PP2A activity was calculated using the following equation: activity=(Sample volume in liters)×A405/1.78×10^4M^−1cm^−1 (Extinction coefficient)×0.25 cm×15 min×0.05 U enzyme.

p70S6K = type: cell-based, human; settings: PC3 cells; LY294002 50 μM 1 hour, sodium selenate 500 μM 1 hour, okadaic acid 500 nM
Procedure: 5×10^5 PC3 prostate carcinoma cells were plated per well of a 6-well plate, allowed to attach for 8 hours, then serum starved overnight. […] Equal amounts of whole cell lysates (75 μg) were resolved by SDS-PAGE, and the level of p70S6K phosphorylation determined by immunoblot analysis with an antibody that specifically recognizes the p70S6K protein when phosphorylated on Thr389. Comparison is made with the protein loading control β tubulin.

Akt = Akt phosphorylation by immunoblot in PC3 prostate carcinoma cells; type: cell-based, human; settings: PC3 cells
Procedure: Such dephosphorylation may be the result of a direct inhibitory effect on the Akt protein itself, or alternatively, can be similarly achieved indirectly by boosting a negative regulator or inhibiting a positive regulator of Akt phosphorylation. […] PC3 prostate carcinoma cells were plated in 100 mm dishes, and when 70-80% confluent serum starved overnight. […] Cells were lysed, and the level of Akt Ser473 phosphorylation determined by immunoblot analysis with an activation specific antibody, and comparison made to levels of Akt protein expressed. To determine the effect on purified Akt, similarly plated but untreated PC3 cells were lysed in RIPA (minus phosphatase inhibitors), a stringent cell lysis buffer that minimizes maintenance of protein-protein complexes. […] The immunoprecipitated protein was then resolved and the level of activated Akt determined by immunoblot analysis as described above.
A reduction in net Akt activity could be achieved indirectly by either preventing the initial Akt phosphorylation, or alternatively, increasing Akt dephosphorylation [Kohn et. al. 1996]. […] Initially okadaic acid, a polyether toxin from red-tide algae (and causative agent of diarrhoetic shellfish poisoning) which inhibits the phospho-protein phosphatases PP1 and PP2A, two phosphatases implicated in the regulation of Akt dephosphorylation was used [Fernandez et al., 2002]. 5×10^5 PC3 prostate carcinoma cells were plated per well of a 6 well plate, allowed attach for 8 h, and then serum starved overnight. […] Lysed cells were resolved by SDS-PAGE, then probed for Akt phosphorylation at the Ser473 residue by immunoblot analysis with an antibody that specifically recognizes Akt when phosphorylated at this site, and comparison made with the total levels of Akt protein expressed (FIG. 2A).
This panel included tautamycin 500 nM (PP1), okadaic acid 500 nM (low dose PP2A>PP1), endothall A (PP2A) 100 μM, calyculin A 2 nM (low dose PP1>PP2A), calyculin A 10 nM (high dose inhibits PP1 and PP2A) and cyclosporine A 400 ng/ml (PP2B). […] Again, lysed cells were resolved by SDS-PAGE, then membranes probed for Akt phosphorylation at the Ser^473 residue by immunoblot analysis with an antibody that specifically recognizes Akt when phosphorylated at this site, and comparison made with the total levels of Akt protein expressed.
5×10^5 PC3 prostate carcinoma cells were plated per well in a 6-well plate, allowed to attach for 8 h, and then serum starved overnight. […] Equal amounts of whole cell lysates were resolved, and then subjected to immunoblot analysis to determine the level of phosphorylated Akt Ser^473. Comparison was then made with the total level of Akt protein expressed.
The phosphorylation status of Akt in whole cell lysates was determined using activation specific antibodies.
Other inorganic (sodium selenite, selenium dioxide, selenium sulphide and selenious acid) and organic (methylselenocysteine, selenocystine) selenium species were tested for their ability to affect Akt activation. All forms were dissolved in water with the exception of selenium sulphide which was solubilised in DMSO, and added to serum starved PC3 cells at a concentration of 500 μM for 1 hour, Whole cell lysates were then resolved, and the activation status of Akt determined by immunoblotting with an antibody that specifically recognizes Akt when phosphorylated at the Ser473 site, as well as the total level of Akt expression (pan Akt). To quantify the degree of Akt activation, immunoblots were digitalised, and the ratio of phosphorylated Akt to total Akt determined by densitometry.

## C=C1[C@@H](O)[C@@H]2O[C@]3(CC[C@H](/C=C/[C@@H](C)[C@@H]4CC(C)=C[C@@]5(O[C@H](C[C@@](C)(O)C(=O)O)CC[C@H]5O)O4)O3)CC[C@H]2O[C@@H]1[C@@H](O)C[C@H](C)[C@H]1O[C@@]2(CCCCO2)CC[C@H]1C [okadaic acid]
[1]
  PP2A phosphatase activity (pNPP): completely abolished
p70S6K
  p70S6K phosphorylation on Thr389: boosts the level of phosphorylation observed
Akt; inhibitor 30 min (okadaic acid 500 nM, endothall A 100 μM, tautamycin 500 nM, calyculin A 2 nM, cyclosporine A 400 ng/ml), then sodium selenate 500 μM 1 h
  effect of PPP inhibitor pretreatment on sodium selenate induced Akt Ser473 dephosphorylation: completely blocked sodium selenate induced Akt dephosphorylation
Akt; okadaic acid 5 nM 30 min, then sodium selenate 500 μM 1 h
  effect of pretreatment on the sodium selenate induced reduction of Akt phosphorylation: unaffected
Akt; okadaic acid 1000 nM
  Akt Ser473 phosphorylation in non-selenate controls: boosts Akt phosphorylation in non-selenate controls
Akt; okadaic acid 1000 nM 30 min, then sodium selenate 500 μM 1 h
  effect of pretreatment on the sodium selenate induced reduction of Akt phosphorylation: completely abolishes the inhibitory effect of sodium selenate
